# Assay results published in patent US8367328B2, “Method for synthesizing DNA” (Takara Bio Inc., priority 1998, dated 2013).
# Experiments:
# [1] = system: TaKaRa EX-Taq DNA Polymerase; experiment: LA-PCR with TaKaRa EX-Taq DNA Polymerase in the presence of acidic substances; assay type: biochemical; conditions: 10 kb fragment
# Experimental: (1) The effects of the acidic substances were studied on LA-PCR method comprising a combination of DNA polymerase having 3′→5′ exonuclease activity, and DNA polymerase having no such activity. A reaction mixture comprising λDNA as a template, primers λ1 and λ8 as a primer pair was prepared, and PCR was carried out. In this PCR, TaKaRa EX-Taq DNA Polymerase (manufactured by Takara Shuzo Co., Ltd.) was used. The composition of the reaction mixture is as follows.
# In the following example, PCR was carried out in Fast mode by using TaKaRa PCR Thermal Cycler Personal (manufactured by Takara Shuzo Co., Ltd.).
# […] Further, 1 ng of the sulfated-fucose-containing polysaccharide-F or 0.5 μg of sodium alginate was respectively added to the above reaction mixture.
# […] After the termination of the reaction, 5 μl of the resulting reaction mixture was subjected to electrophoresis on 1% agarose gel containing ethidium bromide in an amount of 0.00005%, whereby an amplified fragment was confirmed.
# Further, PCR was carried out for a reaction having the same composition as the above reaction mixture except for using 100 pg of λDNA as template DNA, and adding 0.25 μg of sodium alginate or 1 ng of the sulfated-fucose-containing polysaccharide-F as an acidic substance.
# The reaction was carried out in 29 cycles, wherein one cycle of reaction comprises a process consisting of 98° C., 5 seconds—68° C., 3 minutes. […]
# [2] = target: T1, TaKaRa Taq DNA Polymerase (Thermus aquaticus, UniProt P19821); experiment: PCR with TaKaRa Taq DNA Polymerase in the presence of acidic substances; assay type: biochemical; conditions: 1 kb fragment; 100 pg λDNA, primers λ1/λ3, 30 cycles 98°C 10 s–68°C 1 min, 50 μl; amount added 1 μg
# T1 construct: purchased Takara Shuzo Co., Ltd
# Experimental: Using the sulfated-fucose-containing polysaccharide-F obtained in Example 6 described above or sodium alginate, the effects of these acidic substances imparted on TaKaRa Taq DNA Polymerase (manufactured by Takara Shuzo Co., Ltd.) were examined. In this example, PCR was carried out in normal mode by using TaKaRa PCR Thermal Cycler Personal.
# A reaction mixture comprising λDNA as a template, primers λ1 and λ3 as a primer pair, and TaKaRa Taq DNA Polymerase as DNA polymerase was prepared, and PCR was carried out. The composition of the reaction mixture is as follows.
# TaKaRa Taq DNA Polymerase buffer, 0.2 mM each of dATP, dCTP, dGTP and dTTP, 1.25 U of TaKaRa Taq DNA Polymerase, 100 pg of λDNA, and 10 pmol each of primers λ1 and λ3 (a final volume being 50 μl). Further, 0.1 ng or 0.25 ng each of the sulfated-fucose-containing polysaccharide-F or 1 μg of sodium alginate was respectively added to the above reaction mixture.
# The reaction was carried out in 30 cycles, wherein one cycle of reaction comprises a process consisting of 98° C., 10 seconds—68° C., 1 minute. After the termination of the reaction, 5 μl of the resulting reaction mixture was subjected to electrophoresis on 1% agarose gel containing ethidium bromide in an amount of 0.00005%, whereby an amplified fragment was confirmed.
# T1 sequence (P19821 whole entry, the tested form may be a part): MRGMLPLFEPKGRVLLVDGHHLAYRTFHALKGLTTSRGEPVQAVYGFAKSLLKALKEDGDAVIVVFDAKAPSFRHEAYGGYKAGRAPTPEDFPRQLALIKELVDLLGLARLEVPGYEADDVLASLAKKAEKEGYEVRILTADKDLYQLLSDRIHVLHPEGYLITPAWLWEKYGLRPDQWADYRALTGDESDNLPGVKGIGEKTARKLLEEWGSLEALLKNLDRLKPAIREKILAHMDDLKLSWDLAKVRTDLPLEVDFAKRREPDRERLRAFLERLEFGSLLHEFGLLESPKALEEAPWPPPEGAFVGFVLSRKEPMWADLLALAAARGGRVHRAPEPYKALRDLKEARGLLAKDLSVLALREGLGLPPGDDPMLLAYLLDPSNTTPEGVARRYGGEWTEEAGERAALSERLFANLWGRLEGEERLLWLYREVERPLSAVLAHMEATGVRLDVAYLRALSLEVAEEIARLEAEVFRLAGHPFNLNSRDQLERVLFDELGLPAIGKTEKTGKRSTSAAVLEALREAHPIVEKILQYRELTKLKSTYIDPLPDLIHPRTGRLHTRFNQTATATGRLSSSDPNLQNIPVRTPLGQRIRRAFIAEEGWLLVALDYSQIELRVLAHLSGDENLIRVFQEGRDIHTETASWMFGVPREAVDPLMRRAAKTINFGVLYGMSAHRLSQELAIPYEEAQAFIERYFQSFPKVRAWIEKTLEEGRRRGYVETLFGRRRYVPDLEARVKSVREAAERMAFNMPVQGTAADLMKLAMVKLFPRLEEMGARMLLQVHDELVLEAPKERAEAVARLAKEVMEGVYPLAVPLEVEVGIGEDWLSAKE
substance,measurement,setting,value
sodium alginate,Amplification Results,"[1]; template DNA 10 pg, primers λ1/λ8, 27 cycles 98°C 5 s–68°C 3 min, amount added 0.5 μg",++ (Intensive amplification being observed)
same,Amplification Results,"[1]; template DNA 100 pg, primers λ1/λ8, 29 cycles 98°C 5 s–68°C 3 min, amount added 0.25 μg",++ (Intensive amplification being observed)
same,Amplification Results,[2],+ (Amplification being observed)
